According to ChEMBL document CHEMBL1201862, “PubChem BioAssay data set” (2004):
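Protocol summary: plate cells (96-well), add compound at 5 concentrations, incubate 48 h, interpolate endpoints linearly. GI50 marks 50% less growth.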 Activity calls are given as the source filed them. Rule as the data show it: active = GI50 up to about 1.1 µM and inactive = higher.

What was measured:
Test in all cases: NCI tumour cell line growth inhibition, 48 h
A498 = tested on: A498
BT-549 = tested on: BT-549
EKVX = tested on: EKVX
IGROV-1 = tested on: IGROV-1
K562 = tested on: K562
MDA-MB-231 = tested on: MDA-MB-231
NCI-H460 = tested on: NCI-H460
NCI-H522 = tested on: NCI-H522
OVCAR-3 = tested on: OVCAR-3
OVCAR-8 = tested on: OVCAR-8
RPMI-8226 = tested on: RPMI-8226
RXF 393 = tested on: RXF 393
SF-268 = tested on: SF-268
SF-539 = tested on: SF-539
SK-MEL-28 = tested on: SK-MEL-28
SR = tested on: SR
SW-620 = tested on: SW-620
COLO 205 = tested on: COLO 205
SK-OV-3 = tested on: SK-OV-3

SMILES	GI50 (A498)	GI50 (BT-549)	GI50 (EKVX)	GI50 (IGROV-1)	GI50 (K562)	GI50 (MDA-MB-231)	GI50 (NCI-H460)	GI50 (NCI-H522)	GI50 (OVCAR-3)	GI50 (OVCAR-8)	GI50 (RPMI-8226)	GI50 (RXF 393)	GI50 (SF-268)	GI50 (SF-539)	GI50 (SK-MEL-28)	GI50 (SR)	GI50 (SW-620)	GI50 (COLO 205)	GI50 (SK-OV-3)
O=C1/C(=C/c2ccccc2[N+](=O)[O-])N=C(c2ccccc2)N1C1Nc2cc3c(cc2S1)NC(N1C(=O)/C(=C/c2ccccc2[N+](=O)[O-])N=C1c1ccccc1)S3 (configuration not stated)	27.5 µM (inactive)	40.4 µM (inactive)	27.7 µM (inactive)	55.2 µM (inactive)	37.1 µM (inactive)	61.5 µM (inactive)	5.45 µM (inactive)	17.3 µM (inactive)	37.2 µM (inactive)	39.5 µM (inactive)	18.1 µM (inactive)	> 100 µM (inactive)	47.3 µM (inactive)	44.8 µM (inactive)	> 100 µM (inactive)	8.51 µM (inactive)	50.4 µM (inactive)	–	–
Oc1cc(Br)cc2cccnc12	8.36 µM (inactive)	5.15 µM (inactive)	2.09 µM (inactive)	1.71 µM (inactive)	0.82 µM (active)	2.52 µM (inactive)	1.31 µM (inactive)	1.64 µM (inactive)	1.05 µM (active)	1.29 µM (inactive)	1.31 µM (inactive)	2.05 µM (inactive)	0.698 µM (active)	2.16 µM (inactive)	17.3 µM (inactive)	0.56 µM (active)	2.56 µM (inactive)	11.6 µM (inactive)	27.6 µM (inactive)
CC(C)(C)OC(=O)N/C=C1\C(=O)Oc2ccccc2C1=O	8.36 µM (inactive)	33.7 µM (inactive)	47.6 µM (inactive)	42.5 µM (inactive)	> 100 µM (inactive)	21.8 µM (inactive)	33.2 µM (inactive)	< 0.01 µM (active)	29.7 µM (inactive)	40.6 µM (inactive)	> 100 µM (inactive)	23.2 µM (inactive)	25.2 µM (inactive)	14.7 µM (inactive)	45.1 µM (inactive)	> 100 µM (inactive)	38.5 µM (inactive)	51.1 µM (inactive)	0.0294 µM (active)
FC(F)(Sc1nc2ccccc2[nH]1)c1nc2ccccc2o1	> 100 µM (inactive)	75.5 µM (inactive)	–	> 100 µM (inactive)	> 100 µM (inactive)	> 100 µM (inactive)	> 100 µM (inactive)	15.8 µM (inactive)	> 100 µM (inactive)	43.1 µM (inactive)	> 100 µM (inactive)	> 100 µM (inactive)	> 100 µM (inactive)	> 100 µM (inactive)	> 100 µM (inactive)	> 100 µM (inactive)	> 100 µM (inactive)	> 100 µM (inactive)	> 100 µM (inactive)
O=c1c2ccccc2[nH]c2c(Cl)cc(Cl)c(NC3CCCCC3)c12	19.4 µM (inactive)	27.5 µM (inactive)	23 µM (inactive)	18.2 µM (inactive)	22.4 µM (inactive)	29 µM (inactive)	–	20.1 µM (inactive)	14.2 µM (inactive)	20.7 µM (inactive)	28.3 µM (inactive)	–	–	23.2 µM (inactive)	27 µM (inactive)	12 µM (inactive)	22.6 µM (inactive)	31.8 µM (inactive)	32.2 µM (inactive)
CCCCC1Nc2ccccc2-c2ccnc(Cl)c21 (configuration not stated)	16.8 µM (inactive)	18 µM (inactive)	24.2 µM (inactive)	19 µM (inactive)	20.9 µM (inactive)	17.1 µM (inactive)	32.1 µM (inactive)	11.7 µM (inactive)	11.1 µM (inactive)	–	12.2 µM (inactive)	18.5 µM (inactive)	23.1 µM (inactive)	19.2 µM (inactive)	17.8 µM (inactive)	18.7 µM (inactive)	21.2 µM (inactive)	15.7 µM (inactive)	20.3 µM (inactive)
CC1(/C=C/CCSc2ccccc2)CC(=O)C2CC1C2(C)C (configuration not stated)	44.7 µM (inactive)	9.18 µM (inactive)	22.1 µM (inactive)	17.8 µM (inactive)	5.79 µM (inactive)	37.4 µM (inactive)	17.3 µM (inactive)	13 µM (inactive)	23.1 µM (inactive)	22.3 µM (inactive)	3.79 µM (inactive)	29.3 µM (inactive)	28.5 µM (inactive)	7.96 µM (inactive)	25.1 µM (inactive)	3.19 µM (inactive)	32.5 µM (inactive)	30 µM (inactive)	> 72.4 µM (inactive)
CSC1=Nc2ccccc2-c2nc(-c3ccccc3)cc(-c3ccccc3)c2C1	9.93 µM (inactive)	39.7 µM (inactive)	23.1 µM (inactive)	10 µM (inactive)	30.8 µM (inactive)	14.2 µM (inactive)	5.12 µM (inactive)	4.7 µM (inactive)	–	9.98 µM (inactive)	> 100 µM (inactive)	6.5 µM (inactive)	–	19.2 µM (inactive)	35.6 µM (inactive)	31.3 µM (inactive)	15.7 µM (inactive)	55 µM (inactive)	12.2 µM (inactive)
O=C1/C(=C/c2cccs2)N=C(c2ccccc2)N1c1nc2ccccc2s1	> 100 µM (inactive)	53.3 µM (inactive)	49.9 µM (inactive)	16 µM (inactive)	47.5 µM (inactive)	> 100 µM (inactive)	68.5 µM (inactive)	4.14 µM (inactive)	> 100 µM (inactive)	62.1 µM (inactive)	7.45 µM (inactive)	33.3 µM (inactive)	7.74 µM (inactive)	> 100 µM (inactive)	> 100 µM (inactive)	33.6 µM (inactive)	86.9 µM (inactive)	–	–
C=C1C(=O)O[C@@H]2/C=C(\C)CC/C=C(/COC(C)=O)C[C@@H](OC(C)=O)[C@@H]12	19 µM (inactive)	3.91 µM (inactive)	11.1 µM (inactive)	13.4 µM (inactive)	3.21 µM (inactive)	14.9 µM (inactive)	12.1 µM (inactive)	1.16 µM (inactive)	4.49 µM (inactive)	14.1 µM (inactive)	3.39 µM (inactive)	9.38 µM (inactive)	11.3 µM (inactive)	16.2 µM (inactive)	8.99 µM (inactive)	2.16 µM (inactive)	3.94 µM (inactive)	3.44 µM (inactive)	40.6 µM (inactive)
Cc1ccc(S(=O)(=O)N2CCCC2C(=O)O[C@H]2CC[C@H]3CC=C[C@H]32)cc1 (some centres not stated)	23.8 µM (inactive)	47.4 µM (inactive)	65.6 µM (inactive)	41.3 µM (inactive)	14.9 µM (inactive)	63.4 µM (inactive)	27 µM (inactive)	> 10 µM (inactive)	> 100 µM (inactive)	31.8 µM (inactive)	17.1 µM (inactive)	–	> 100 µM (inactive)	> 10 µM (inactive)	29.9 µM (inactive)	24.9 µM (inactive)	31.1 µM (inactive)	> 10 µM (inactive)	33.7 µM (inactive)
